Source: patent publication US20160353747A1, “COMPOSITIONS AND METHODS FOR ACHIEVING A BIOLOGICAL EFFECT IN TARGET VEGETATION” (Ento Bio LLC, priority 2015, published 2016)

System: zinnia (Zinnia peruviana var. “Giant Dahlia”) seedlings
Assay: Herbicidal effect (percent control) on zinnia seedlings
Type: in vivo
Settings: Enz 0 mg, 2 mL dose
Procedure: In one example, combinations of cellulase and hemicellulase from Trichoderma viride (i.e. depolymerase, labeled “Enz” in Table 1), bovine serum albumin (i.e. non-depolymerase protein, labeled “BSA” in Table 1), and glyphosate (labeled “Gly” in Table 1) are blended and applied in 2 mL doses directly to zinnia (Zinnia peruviana var. “Giant Dahlia”) seedlings at the first true leaf stage. Treatments ranged from 0-1.6 mg of depolymerase that consisted of cellulase from Trichoderma viride and hemicellulase from Aspergillus niger in a ratio of 10.5:6, respectively; non-depolymerase BSA from 0-24 mg; and glyphosate from 0-0.3 mg. […] Herbicidal effect was assessed 12 days after treatment (DAT). Percent control ratings ascertained the extent of control, i.e. reduction in growth, and were scored on a basis of 0 to 100 where 100 represents complete killing of the plants and 0 represents no reduction in growth as compared to the untreated control.

O=C(O)CNCP(=O)(O)O [Gly, glyphosate]
Percent Control 12 DAT (Gly 0.003 mg, BSA 0 mg): 0% | Percent Control 12 DAT (Gly 0.03 mg, BSA 0 mg): 28% | Percent Control 12 DAT (Gly 0.3 mg, BSA 0 mg): 28%

bovine serum albumin [BSA]
Percent Control 12 DAT (Gly 0 mg, BSA 0.24 mg): 3% | Percent Control 12 DAT (Gly 0 mg, BSA 2.4 mg): 7% | Percent Control 12 DAT (Gly 0 mg, BSA 24 mg): 13%
